Entries after “also recorded” stand apart in the source; their conditions may differ. Ends that are not written are not given here.
Test system: HUVEC monolayers
Assay: Inhibition of macromolecule (HRP) permeability of thrombin-stimulated HUVEC monolayers
Format: cell-based, human
Details: 10 μM Motapizone (PDE3) together with 1 μM RP73401 (PDE4), 1 U/ml thrombin
Protocol: The procedure to measure macromolecule permeability of endothelial cell monolayers followed the method described by Langeler & van Hinsbergh (1988) with modifications. Human umbilical vein endothelial cells were isolated from umbilical cords according to standard procedures (Jaffe et al. 1973) and cultured in endothelial cell basal medium (EBM) supplemented with 2% FCS, 0.5 ng/ml VEGF, 10 ng/ml bFGF, 5 ng/ml EGF, 20 ng/ml Long R3 IGF-1, 0.2 μg/ml hydrocortisone, 1 μg/ml ascorbic acid, 22.5 μg/ml heparin, 50 μg/ml gentamicin, 50 ng/ml amphotericin B (EGM2 purchased from Promocell GmbH, Heidelberg, Germany). At confluency, cells were trypsinized and replated at 73000 cells per well on 3 μm polycarbonate filter Transwell inserts (Costar GmbH, Bodenheim, Germany) precoated with 10 μg cm^2 −1 Fibronectin (Sigma, Taufkirchen, Germany). HUVECs were cultured in EGM2 (100 μl in the upper wells and 600 μl in the lower wells) over four days prior the experiments and medium was changed every other day. At the day of the experiment culture medium was replaced by M199 with 1% human serum albumin. Endothelial cells were preincubated with cyclic nucleotide modifiers (the selective PDE3 inhibitor motapizone, the selective PDE4 inhibitor RP73401, the cGMP generators ANP or SNP and PDE2 inhibitors) for 15 min. HUVECs were then stimulated with Thrombin (1 U ml^−1) (Sigma, Taufkichen, Germany) and horsh radish peroxidase (5 μg/ml) (Sigma, Taufkirchen, Germany) as the macromolecule marker protein was added to the upper wells. Following 1 h incubation time Transwells were removed and the activity of horsh radish peroxidase that penetrated the endothelial cell monolayer was measured in the lower wells with the 3,3′, 5,5′-tetramethylbenzidine liquid substrate system from Sigma (Taufkirchen, Germany).
In parallel, compounds according to the invention can inhibit Thrombin-induced permeability of HUVEC monolayers for horsh radish peroxidase (HRP) as a macromolecule marker. […] The concentration-dependent inhibition of HRP permeability at different concentrations was assessed from the percent inhibition in the presence and absence of the PDE2 inhibitors and in the presence of 1 μM RP73401, 10 μM Motapizone and 100 nM ANP.
HUVEC cells on 3 μm polycarbonate filters (Transwells) were preincubated with 1 μM RP73401 (to block PDE4) and 10 μM Motapizone (to block PDE3), 1 mM SNP or 100 nM ANP and 1 μM of test sample over 15 min and then stimulated with 1 U/ml thrombin. HRP passage into the lower wells was assessed after 60 min.

Compound	Thrombin-induced increase of HRP permeability (hyperpermeability)
CC1CC(=O)NN=C1c1cc(-n2ccnc2)cs1 (centres unmarked) [Motapizone, reference compound]	completely abolished; also recorded: completely blocked
COc1ccc(C(=O)Nc2c(Cl)cncc2Cl)cc1OC1CCCC1 [RP73401, reference compound]	completely abolished; also recorded: completely blocked

Same assay, conditions: ANP (100 nM) or SNP (1 mM) in additional presence of 10 μM Motapizone and 1 μM RP73401

Compound	Effect on the inhibition of permeability by PDE3 and 4 inhibition
ANP: cGMP generator used to augment cGMP and activate PDE2 (SLRRSSCFGGRMDRIGAQSGLGCNSFRY; ends and bridges not checked; cysteine pairing not given here; UniProt P01160 124-151, looked up) [reference compound]	partially reversed

Same assay, conditions: Homo sapiens, 1 h; HUVEC, 1 μM RP73401, 10 μM Motapizone, 1 mM SNP or 100 nM ANP, 1 U/ml thrombin, HRP passage after 60 min; read-out: Inhibition of SNP- or ANP-induced permeability, −log IC50 (converted)

Compound	IC50 [nM]
COCC(=O)Nc1ccc(Nc2nn3c(-c4ccc(OC)cc4)nnc3c3ccccc23)cc1 [Compound 4, 2-Methoxy-N-{4-[3-(4-methoxy-phenyl)-[1,2,4]triazolo[3,4-a]phthalazin-6-ylamino]-phenyl}-acetamide]	2 to 63.1
COCCC(=O)Nc1ccc(Nc2nn3c(-c4ccc(OC)cc4)nnc3c3ccccc23)cc1 [Compound 5, 3-Methoxy-N-{4-[3-(4-methoxy-phenyl)-[1,2,4]triazolo[3,4-a]phthalazin-6-ylamino]-phenyl}-propionamide]	2 to 63.1
COc1ccc(-c2nnc3c4ccccc4c(Nc4ccc(NC(=O)c5c[nH]cn5)cc4)nn23)cc1 [Compound 11, 1H-Imidazole-4-carboxylic acid {4-[3-(4-methoxy-phenyl)-[1,2,4]triazolo[3,4-a]phthalazin-6-ylamino]-phenyl}-amide]	2 to 63.1
COc1ccc(-c2nnc3c4ccccc4c(Nc4ccc(NC(=O)C5CCCCN5)cc4)nn23)cc1 (centres unmarked) [Compound 12, Piperidine-2-carboxylic acid {4-[3-(4-methoxy-phenyl)-[1,2,4]triazolo[3,4-a]phthalazin-6-ylamino]-phenyl}-amide]	2 to 63.1
COc1ccc(-c2nnc3c4ccccc4c(Nc4ccc(NC(=O)C(F)(F)F)cc4)nn23)cc1 [Compound 17, 2,2,2-Trifluoro-N-{4-[3-(4-methoxy-phenyl)-[1,2,4]triazolo[3,4-a]phthalazin-6-ylamino]-phenyl}-acetamide]	2 to 63.1
COc1ccc(-c2nnc3c4ccccc4c(Nc4ccc(NC(=O)C5CC5)cc4)nn23)cc1 [Compound 18, Cyclopropanecarboxylic acid {4-[3-(4-methoxy-phenyl)-[1,2,4]triazolo[3,4-a]phthalazin-6-ylamino]-phenyl}-amide]	2 to 63.1
COc1ccc(-c2nnc3c4ccccc4c(Nc4ccc(NC(=O)c5ccoc5)cc4)nn23)cc1 [Compound 21, Furan-3-carboxylic acid {4-[3-(4-methoxy-phenyl)-[1,2,4]triazolo[3,4-a]phthalazin-6-ylamino]-phenyl}-amide]	2 to 63.1
COc1ccc(-c2nnc3c4ccccc4c(Nc4ccc(NC(=O)CN5CCOCC5)cc4)nn23)cc1 [Compound 25, N-{4-[3-(4-Methoxy-phenyl)-[1,2,4]triazolo[3,4-a]phthalazin-6-ylamino]-phenyl}-2-morpholin-4-yl-acetamide]	2 to 63.1
O=C(Nc1ccc(Nc2nn3c(-c4ccccc4Br)nnc3c3ccccc23)cc1)C1CCCCN1 (centres unmarked) [Compound 30, Piperidine-2-carboxylic acid {4-[3-(2-bromo-phenyl)-[1,2,4]triazolo[3,4-a]phthalazin-6-ylamino]-phenyl}-amide]	2 to 63.1
COc1ccc(-c2nnc3c4ccccc4c(Nc4cccc(NC(=O)C5CC5)c4)nn23)cc1 [Compound 38, Cyclopropanecarboxylic acid {3-[3-(4-methoxy-phenyl)-[1,2,4]triazolo[3,4-a]phthalazin-6-ylamino]-phenyl}-amide]	2 to 63.1
COc1ccc(-c2nnc3c4ccccc4c(Nc4cccc(NC(=O)C5CCN(C(C)=O)CC5)c4)nn23)cc1 [Compound 54, 1-Acetyl-piperidine-4-carboxylic acid {3-[3-(4-methoxy-phenyl)-[1,2,4]triazolo[3,4-a]phthalazin-6-ylamino]-phenyl}-amide]	2 to 63.1
CNC(=O)c1ccc(Nc2nn3c(-c4ccc(OC)cc4)nnc3c3ccccc23)cc1 [Compound 85, 4-[3-(4-Methoxy-phenyl)-[1,2,4]triazolo[3,4-a]phthalazin-6-ylamino]-N-methyl-benzamide]	2 to 63.1

Test system: not given
Assay: not given
Details: not given

melting point [°C]	Compound
295	COc1ccc(-c2nnc3c4ccccc4c(Nc4ccc(N)cc4)nn23)cc1 [Compound 1, N-[3-(4-Methoxyphenyl)-[1,2,4]triazolo[3,4-a]phthalazin-6-yl]-benzene-1,4-diamine]
323	COc1ccc(-c2nnc3c4ccccc4c(Nc4ccc(NC(=O)c5ccccc5)cc4)nn23)cc1 [Compound 33, N-{4-[3-(4-Methoxyphenyl)-[1,2,4]triazolo[3,4-a]phthalazin-6-ylamino]-phenyl}-benzamide]
295	COc1ccc(-c2nnc3c4ccccc4c(Nc4cccc(NC(C)=O)c4)nn23)cc1 [Compound 66, N-{3-[3-(4-Methoxyphenyl)-[1,2,4]triazolo[3,4-a]phthalazin-6-ylamino]-phenyl}-acetamide]
296	COc1ccc(-c2nnc3c4ccccc4c(Nc4cccc(C(N)=O)c4)nn23)cc1 [Compound 109, 3-[3-(4-Methoxyphenyl)-[1,2,4]triazolo[3,4-a]phthalazin-6-ylamino]-benzamide]
316	CNC(=O)c1cccc(Nc2nn3c(-c4ccc(OC)cc4)nnc3c3ccccc23)c1 [Compound 110, 3-[3-(4-Methoxyphenyl)-[1,2,4]triazolo[3,4-a]phthalazin-6-ylamino]-N-methylbenzamide]

From patent US7851472B2, “Triazolophthalazines” (NYCOMED GmbH, priority 2004, dated 2010)
